Results as given in ChEMBL document CHEMBL4004849, “Tetrazolylmethyl quinolines: Design, docking studies, synthesis, anticancer and antifungal analyses” (2017).
Activity calls are given as the source filed them.

Tests used:
Format in all cases: functional
ACHN = assay: Growth inhibition of human ACHN cells at 10^-5 M incubated for 48 hrs by sulforhodamine B assay relative to control
U-251 = assay: Growth inhibition of human U251 cells at 10^-5 M incubated for 48 hrs by sulforhodamine B assay relative to control
A549 = assay: Growth inhibition of human A549/ATCC cells at 10^-5 M incubated for 48 hrs by sulforhodamine B assay relative to control
RXF 393 = assay: Growth inhibition of human RXF393 cells at 10^-5 M incubated for 48 hrs by sulforhodamine B assay relative to control
T47D = assay: Growth inhibition of human T47D cells at 10^-5 M incubated for 48 hrs by sulforhodamine B assay relative to control
HL-60(TB) = assay: Growth inhibition of human HL-60(TB) cells at 10^-5 M incubated for 48 hrs by sulforhodamine B assay relative to control
TK-10 = assay: Growth inhibition of human TK10 cells at 10^-5 M incubated for 48 hrs by sulforhodamine B assay relative to control
M14 = assay: Growth inhibition of human M14 cells at 10^-5 M incubated for 48 hrs by sulforhodamine B assay relative to control
MDA-MB-435 = assay: Growth inhibition of human MDA-MB-435 cells at 10^-5 M incubated for 48 hrs by sulforhodamine B assay relative to control
HCT-116 = assay: Growth inhibition of human HCT116 cells at 10^-5 M incubated for 48 hrs by sulforhodamine B assay relative to control
EKVX = assay: Growth inhibition of human EKVX cells at 10^-5 M incubated for 48 hrs by sulforhodamine B assay relative to control
CAKI-1 = assay: Growth inhibition of human Caki1 cells at 10^-5 M incubated for 48 hrs by sulforhodamine B assay relative to control
KM12 = assay: Growth inhibition of human KM12 cells at 10^-5 M incubated for 48 hrs by sulforhodamine B assay relative to control
UO-31 = assay: Growth inhibition of human UO31 cells at 10^-5 M incubated for 48 hrs by sulforhodamine B assay relative to control
SF-539 = assay: Growth inhibition of human SF539 cells at 10^-5 M incubated for 48 hrs by sulforhodamine B assay relative to control
SN12C = assay: Growth inhibition of human SN12C cells at 10^-5 M incubated for 48 hrs by sulforhodamine B assay relative to control
IGROV-1 = assay: Growth inhibition of human IGROV1 cells at 10^-5 M incubated for 48 hrs by sulforhodamine B assay relative to control
Aspergillus fumigatus = assay: Antifungal activity against Aspergillus fumigatus after 24 hrs by serial dilution method
UACC-62 = assay: Growth inhibition of human UACC62 cells at 10^-5 M incubated for 48 hrs by sulforhodamine B assay relative to control
Candida albicans [1] = assay: Antifungal activity against Candida albicans after 24 hrs by serial dilution method
NCI-H226 = assay: Growth inhibition of human NCI-H226 cells at 10^-5 M incubated for 48 hrs by sulforhodamine B assay relative to control
MOLT-4 = assay: Growth inhibition of human MOLT4 cells at 10^-5 M incubated for 48 hrs by sulforhodamine B assay relative to control
SNB-19 = assay: Growth inhibition of human SNB19 cells at 10^-5 M incubated for 48 hrs by sulforhodamine B assay relative to control
Candida albicans [2] = assay: Antifungal activity against Candida albicans at 100 ug/ml by disc diffusion method; details: read-out: IZ
SK-OV-3 = assay: Growth inhibition of human SKOV3 cells at 10^-5 M incubated for 48 hrs by sulforhodamine B assay relative to control
SNB-75 = assay: Growth inhibition of human SNB75 cells at 10^-5 M incubated for 48 hrs by sulforhodamine B assay relative to control
MDA-MB-231 = assay: Growth inhibition of human MDA-MB-231/ATCC cells at 10^-5 M incubated for 48 hrs by sulforhodamine B assay relative to control
COLO 205 = assay: Growth inhibition of human COLO205 cells at 10^-5 M incubated for 48 hrs by sulforhodamine B assay relative to control
SF-268 = assay: Growth inhibition of human SF268 cells at 10^-5 M incubated for 48 hrs by sulforhodamine B assay relative to control
NCI-H460 = assay: Growth inhibition of human NCI-H460 cells at 10^-5 M incubated for 48 hrs by sulforhodamine B assay relative to control
LOX IMVI = assay: Growth inhibition of human LOXIMVI cells at 10^-5 M incubated for 48 hrs by sulforhodamine B assay relative to control
OVCAR-8 = assay: Growth inhibition of human OVCAR8 cells at 10^-5 M incubated for 48 hrs by sulforhodamine B assay relative to control
Malme-3M = assay: Growth inhibition of human MALME-3M cells at 10^-5 M incubated for 48 hrs by sulforhodamine B assay relative to control
HCT-15 = assay: Growth inhibition of human HCT15 cells at 10^-5 M incubated for 48 hrs by sulforhodamine B assay relative to control
SF-295 = assay: Growth inhibition of human SF295 cells at 10^-5 M incubated for 48 hrs by sulforhodamine B assay relative to control
SK-MEL-2 = assay: Growth inhibition of human SK-MEL-2 cells at 10^-5 M incubated for 48 hrs by sulforhodamine B assay relative to control
SW-620 = assay: Growth inhibition of human SW620 cells at 10^-5 M incubated for 48 hrs by sulforhodamine B assay relative to control
UACC-257 = assay: Growth inhibition of human UACC257 cells at 10^-5 M incubated for 48 hrs by sulforhodamine B assay relative to control
NCI-H522 = assay: Growth inhibition of human NCI-H522 cells at 10^-5 M incubated for 48 hrs by sulforhodamine B assay relative to control
SK-MEL-5 = assay: Growth inhibition of human SK-MEL-5 cells at 10^-5 M incubated for 48 hrs by sulforhodamine B assay relative to control
NCI-H23 = assay: Growth inhibition of human NCI-H23 cells at 10^-5 M incubated for 48 hrs by sulforhodamine B assay relative to control
BT-549 = assay: Growth inhibition of human BT549 cells at 10^-5 M incubated for 48 hrs by sulforhodamine B assay relative to control
SR = assay: Growth inhibition of human SR cells at 10^-5 M incubated for 48 hrs by sulforhodamine B assay relative to control
HCC 2998 = assay: Growth inhibition of human HCC2998 cells at 10^-5 M incubated for 48 hrs by sulforhodamine B assay relative to control

COc1ccc2nc(Cl)c(Cn3nnnc3CSc3ccccc3)cc2c1
18 mm: zone of inhibition at 100 µg/mL (Candida albicans [2])
active: growth inhibition (GI) (ACHN) | growth inhibition (GI) (U-251) | growth inhibition (GI) (A549) | growth inhibition (GI) (RXF 393) | growth inhibition (GI) (T47D) | growth inhibition (GI) (HL-60(TB)) | growth inhibition (GI) (TK-10) | growth inhibition (GI) (M14) | growth inhibition (GI) (MDA-MB-435) | growth inhibition (GI) (HCT-116) | growth inhibition (GI) (EKVX) | growth inhibition (GI) (CAKI-1) | growth inhibition (GI) (KM12) | growth inhibition (GI) (UO-31) | growth inhibition (GI) (SF-539) | growth inhibition (GI) (SN12C) | growth inhibition (GI) (IGROV-1) | growth inhibition (GI) (UACC-62) | growth inhibition (GI) (NCI-H226) | growth inhibition (GI) (MOLT-4) | growth inhibition (GI) (SNB-19) | growth inhibition (GI) (SK-OV-3) | growth inhibition (GI) (SNB-75) | growth inhibition (GI) (MDA-MB-231) | growth inhibition (GI) (COLO 205) | growth inhibition (GI) (SF-268) | growth inhibition (GI) (NCI-H460) | growth inhibition (GI) (LOX IMVI) | growth inhibition (GI) (OVCAR-8) | growth inhibition (GI) (Malme-3M) | growth inhibition (GI) (HCT-15) | growth inhibition (GI) (SF-295) | growth inhibition (GI) (SK-MEL-2) | growth inhibition (GI) (SW-620) | growth inhibition (GI) (UACC-257) | growth inhibition (GI) (NCI-H522) | growth inhibition (GI) (SK-MEL-5) | growth inhibition (GI) (NCI-H23) | growth inhibition (GI) (BT-549) | growth inhibition (GI) (SR) | growth inhibition (GI) (HCC 2998)
25 µg/mL: MIC (Candida albicans [1])
10 µg/mL: MIC (Aspergillus fumigatus)
